{"source": "paper PMC5988656", "about": "“Phase I studies of AZD1208, a proviral integration Moloney virus kinase inhibitor in solid and haematological cancers” (British Journal of Cancer, 2018)", "assay": "Solid tumour dose-escalation study: pharmacokinetics (plasma, urine)", "assay_type": "in vivo, human", "procedure": "The schedules for collection of blood and urine samples for PK analyses in each cohort in both studies are described in Supplementary Table 1. When necessary for clinical response assessment in the AML study, a bone marrow sample for PK analysis was collected at Cycle 1, Day 28.\nThe concentration of AZD1208 in plasma and urine was determined by Covance, on behalf of Clinical Bioanalysis Alliance at AstraZeneca R&D, using a bioanalytical method. A volume of 0.05 ml of K2EDTA human plasma sample was extracted by liquid–liquid extraction using 0.7 ml of methyl tert-butyl ether. Approximately 100 µl of the supernatant was transferred, evaporated to dryness and reconstituted with 350 µl of 1:1 methanol:water, and a 5 µl injection was made to the high-performance liquid chromatography (HPLC) column. HPLC separations were performed on a Phenomenex LUNA C18 (50 × 2 mm, 5 µm) column using a mobile phase of 0.1% formic acid in water (A) and 0.1% formic acid in acetonitrile (B) at a flow rate of 0.6 ml/min and a column temperature of 40 °C. AZD1208-D5 was used as the internal standard. Detection was performed in a Sciex API4000 mass spectrometer, in a positive electrospray ionisation mode, using multiple reaction monitoring detection (AZD1208: 380.0–>248.1; AZD1208-D5: 385.0–>253.1).", "data": [{"smiles": "N[C@@H]1CCCN(c2c(/C=C3\\SC(=O)NC3=O)cccc2-c2ccccc2)C1", "note": "[AZD1208]", "values": [{"measurement": "Plasma concentration of AZD1208, Gmean", "setting": "Cycle 0, Day 1, 1 h post-dose, 120 mg", "result": "n=3 156.2 ng ml"}, {"measurement": "Plasma concentration of AZD1208, Gmean", "setting": "Cycle 0, Day 1, 1 h post-dose, 240 mg", "result": "n=7 668.4 ng ml"}, {"measurement": "Plasma concentration of AZD1208, Gmean", "setting": "Cycle 0, Day 1, 1 h post-dose, 360 mg", "result": "n=5 1424 ng ml"}, {"measurement": "Plasma concentration of AZD1208, Gmean", "setting": "Cycle 0, Day 1, 1 h post-dose, 540 mg", "result": "n=7 1053 ng ml"}, {"measurement": "Plasma concentration of AZD1208, Gmean", "setting": "Cycle 0, Day 1, 1 h post-dose, 700 mg", "result": "n=6 691.7 ng ml"}, {"measurement": "Plasma concentration of AZD1208, Gmean", "setting": "Cycle 0, Day 1, 1 h post-dose, 800 mg", "result": "n=6 925.6 ng ml"}, {"measurement": "Plasma concentration of AZD1208, Gmean", "setting": "Cycle 0, Day 1, 1.5 h post-dose, 120 mg", "result": "n=3 696.5 ng ml"}, {"measurement": "Plasma concentration of AZD1208, Gmean", "setting": "Cycle 0, Day 1, 1.5 h post-dose, 240 mg", "result": "n=7 1317 ng ml"}, {"measurement": "Plasma concentration of AZD1208, Gmean", "setting": "Cycle 0, Day 1, 1.5 h post-dose, 360 mg", "result": "n=5 2509 ng ml"}, {"measurement": "Plasma concentration of AZD1208, Gmean", "setting": "Cycle 0, Day 1, 1.5 h post-dose, 540 mg", "result": "n=7 2747 ng ml"}, {"measurement": "Plasma concentration of AZD1208, Gmean", "setting": "Cycle 0, Day 1, 2 h post-dose, 120 mg", "result": "n=3 1064 ng ml"}, {"measurement": "Plasma concentration of AZD1208, Gmean", "setting": "Cycle 0, Day 1, 2 h post-dose, 240 mg", "result": "n=7 1906 ng ml"}, {"measurement": "Plasma concentration of AZD1208, Gmean", "setting": "Cycle 0, Day 1, 2 h post-dose, 360 mg", "result": "n=6 3412 ng ml"}, {"measurement": "Plasma concentration of AZD1208, Gmean", "setting": "Cycle 0, Day 1, 2 h post-dose, 540 mg", "result": "n=7 4049 ng ml"}, {"measurement": "Plasma concentration of AZD1208, Gmean", "setting": "Cycle 0, Day 1, 2 h post-dose, 700 mg", "result": "n=6 3514 ng ml"}, {"measurement": "Plasma concentration of AZD1208, Gmean", "setting": "Cycle 0, Day 1, 2 h post-dose, 800 mg", "result": "n=6 2929 ng ml"}, {"measurement": "Plasma concentration of AZD1208, Gmean", "setting": "Cycle 0, Day 1, 4 h post-dose, 120 mg", "result": "n=3 720.6 ng ml"}, {"measurement": "Plasma concentration of AZD1208, Gmean", "setting": "Cycle 0, Day 1, 4 h post-dose, 240 mg", "result": "n=6 1531 ng ml"}, {"measurement": "Plasma concentration of AZD1208, Gmean", "setting": "Cycle 0, Day 1, 4 h post-dose, 360 mg", "result": "n=6 3157 ng ml"}, {"measurement": "Plasma concentration of AZD1208, Gmean", "setting": "Cycle 0, Day 1, 4 h post-dose, 540 mg", "result": "n=7 3160 ng ml"}, {"measurement": "Plasma concentration of AZD1208, Gmean", "setting": "Cycle 0, Day 1, 4 h post-dose, 700 mg", "result": "n=6 4581 ng ml"}, {"measurement": "Plasma concentration of AZD1208, Gmean", "setting": "Cycle 0, Day 1, 4 h post-dose, 800 mg", "result": "n=6 3844 ng ml"}, {"measurement": "Plasma concentration of AZD1208, Gmean", "setting": "Cycle 0, Day 1, 6 h post-dose, 120 mg", "result": "n=3 681 ng ml"}, {"measurement": "Plasma concentration of AZD1208, Gmean", "setting": "Cycle 0, Day 1, 6 h post-dose, 240 mg", "result": "n=7 1408 ng ml"}, {"measurement": "Plasma concentration of AZD1208, Gmean", "setting": "Cycle 0, Day 1, 6 h post-dose, 360 mg", "result": "n=6 2501 ng ml"}, {"measurement": "Plasma concentration of AZD1208, Gmean", "setting": "Cycle 0, Day 1, 6 h post-dose, 540 mg", "result": "n=7 3190 ng ml"}, {"measurement": "Plasma concentration of AZD1208, Gmean", "setting": "Cycle 0, Day 1, 6 h post-dose, 700 mg", "result": "n=6 5091 ng ml"}, {"measurement": "Plasma concentration of AZD1208, Gmean", "setting": "Cycle 0, Day 1, 6 h post-dose, 800 mg", "result": "n=6 2677 ng ml"}, {"measurement": "Plasma concentration of AZD1208, Gmean", "setting": "Cycle 0, Day 1, 8 h post-dose, 120 mg", "result": "n=3 597.8 ng ml"}, {"measurement": "Plasma concentration of AZD1208, Gmean", "setting": "Cycle 0, Day 1, 8 h post-dose, 240 mg", "result": "n=7 1456 ng ml"}, {"measurement": "Plasma concentration of AZD1208, Gmean", "setting": "Cycle 0, Day 1, 8 h post-dose, 360 mg", "result": "n=6 2196 ng ml"}, {"measurement": "Plasma concentration of AZD1208, Gmean", "setting": "Cycle 0, Day 1, 8 h post-dose, 540 mg", "result": "n=7 2957 ng ml"}, {"measurement": "Plasma concentration of AZD1208, Gmean", "setting": "Cycle 0, Day 1, 8 h post-dose, 700 mg", "result": "n=6 4256 ng ml"}, {"measurement": "Plasma concentration of AZD1208, Gmean", "setting": "Cycle 0, Day 1, 8 h post-dose, 800 mg", "result": "n=6 3463 ng ml"}, {"measurement": "Plasma concentration of AZD1208, Gmean", "setting": "Cycle 0, Day 1, 24 h post-dose, 120 mg", "result": "n=3 459.4 ng ml"}, {"measurement": "Plasma concentration of AZD1208, Gmean", "setting": "Cycle 0, Day 1, 24 h post-dose, 240 mg", "result": "n=7 1157 ng ml"}, {"measurement": "Plasma concentration of AZD1208, Gmean", "setting": "Cycle 0, Day 1, 24 h post-dose, 360 mg", "result": "n=6 1649 ng ml"}, {"measurement": "Plasma concentration of AZD1208, Gmean", "setting": "Cycle 0, Day 1, 24 h post-dose, 540 mg", "result": "n=7 2111 ng ml"}, {"measurement": "Plasma concentration of AZD1208, Gmean", "setting": "Cycle 0, Day 1, 24 h post-dose, 700 mg", "result": "n=6 2957 ng ml"}, {"measurement": "Plasma concentration of AZD1208, Gmean", "setting": "Cycle 0, Day 1, 24 h post-dose, 800 mg", "result": "n=6 2466 ng ml"}, {"measurement": "Plasma concentration of AZD1208, Gmean", "setting": "Cycle 0, Day 1, 48 h post-dose, 120 mg", "result": "n=3 308.4 ng ml"}, {"measurement": "Plasma concentration of AZD1208, Gmean", "setting": "Cycle 0, Day 1, 48 h post-dose, 240 mg", "result": "n=7 773.2 ng ml"}, {"measurement": "Plasma concentration of AZD1208, Gmean", "setting": "Cycle 0, Day 1, 48 h post-dose, 360 mg", "result": "n=6 1361 ng ml"}, {"measurement": "Plasma concentration of AZD1208, Gmean", "setting": "Cycle 0, Day 1, 48 h post-dose, 540 mg", "result": "n=7 1168 ng ml"}, {"measurement": "Plasma concentration of AZD1208, Gmean", "setting": "Cycle 0, Day 1, 48 h post-dose, 700 mg", "result": "n=6 1717 ng ml"}, {"measurement": "Plasma concentration of AZD1208, Gmean", "setting": "Cycle 0, Day 1, 48 h post-dose, 800 mg", "result": "n=6 1377 ng ml"}, {"measurement": "Plasma concentration of AZD1208, Gmean", "setting": "Cycle 0, Day 1, 72 h post-dose, 120 mg", "result": "n=3 221.4 ng ml"}, {"measurement": "Plasma concentration of AZD1208, Gmean", "setting": "Cycle 0, Day 1, 72 h post-dose, 240 mg", "result": "n=7 501.1 ng ml"}, {"measurement": "Plasma concentration of AZD1208, Gmean", "setting": "Cycle 0, Day 1, 72 h post-dose, 360 mg", "result": "n=6 912.2 ng ml"}, {"measurement": "Plasma concentration of AZD1208, Gmean", "setting": "Cycle 0, Day 1, 72 h post-dose, 540 mg", "result": "n=7 710.8 ng ml"}, {"measurement": "Plasma concentration of AZD1208, Gmean", "setting": "Cycle 0, Day 1, 72 h post-dose, 700 mg", "result": "n=6 1141 ng ml"}, {"measurement": "Plasma concentration of AZD1208, Gmean", "setting": "Cycle 0, Day 1, 72 h post-dose, 800 mg", "result": "n=6 798.7 ng ml"}, {"measurement": "Plasma concentration of AZD1208, Gmean", "setting": "Cycle 1, Day 15, 0.25 h post-dose, 120 mg", "result": "n=3 963.7 ng ml"}, {"measurement": "Plasma concentration of AZD1208, Gmean", "setting": "Cycle 1, Day 15, 0.25 h post-dose, 240 mg", "result": "n=6 606.8 ng ml"}, {"measurement": "Plasma concentration of AZD1208, Gmean", "setting": "Cycle 1, Day 15, 0.25 h post-dose, 360 mg", "result": "n=2 562.8 ng ml"}]}]}
